Test results reported in the supplement of paper PMC4862054.

Columns and labels:
MDA-MB-468 = assay: normalised viability (% of control), CellTiter-Blue; higher = more viable cells (about 100 = DMSO control); details: incubation time: 72 h
Procedure, shortened: (§1)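 Plates were quality-checked by Z'-factor and normalised to vehicle (100) and a positive kill control (0). The underlying assay incubated breast cancer cell lines for 72 h on 384-well plates with compound, then added 2.5 µl CellTiter-Blue for 2 h at 37 °C and read at 560/590 nm. The value is normalised viability at a single listed concentration of the series.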

CAL-85-1 = assay: as above; details: incubation time: 72 h
Procedure, shortened: as §1

DU-4475 = assay: as above; details: incubation time: 72 h
Procedure, shortened: as §1

CAL-148 [1] = assay: as above; details: incubation time: 72 h
Procedure, shortened: as §1

CAL-120 [2] = assay: as above; details: incubation time: 72 h
Procedure, shortened: as §1

BT-474 = assay: as above; details: incubation time: 72 h
Procedure, shortened: as §1

MDA-MB-231 = assay: as above; details: incubation time: 72 h
Procedure, shortened: as §1

SK-BR-3 = assay: as above; details: incubation time: 72 h
Procedure, shortened: as §1

BT-549 [3] = assay: as above; details: incubation time: 72 h
Procedure, shortened: as §1

HCC1599 = assay: as above; details: incubation time: 72 h
Procedure, shortened: as §1

MDA-MB-453 [4] = assay: as above; details: incubation time: 72 h
Procedure, shortened: as §1

MDA-MB-436 = assay: as above; details: incubation time: 72 h
Procedure, shortened: as §1

Hs578T = assay: as above; details: incubation time: 72 h
Procedure, shortened: as §1

HDQ-P1 = assay: as above; details: incubation time: 72 h
Procedure, shortened: as §1

CAL-51 = assay: as above; details: incubation time: 72 h
Procedure, shortened: as §1

HCC1143 = assay: as above; details: incubation time: 72 h
Procedure, shortened: as §1

MFM-223 [5] = assay: as above; details: incubation time: 72 h
Procedure, shortened: as §1

HCC1937 = assay: as above; details: incubation time: 72 h
Procedure, shortened: as §1

CAL-148 [6] = assay: drug sensitivity score (DSS), CellTox Green (DSS (AUC-based score)); higher = stronger drug effect (viability inhibition or cytotoxicity); extreme values may be limits of the assay; details: incubation time: 72 h
Procedure, shortened: (§2)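 The area under the fitted dose-response curve was used to calculate the drug sensitivity score. Cells from breast cancer lines were incubated for 72 h in 384-well plates with compound at 5 concentrations spaced 10-fold over a 10,000-fold range specific to each compound. Plates were read for CellTox Green and then CellTiter-Glo, and normalised to 0.1 % DMSO and a positive kill control.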

CAL-120 [7] = assay: as above; details: incubation time: 72 h
Procedure, shortened: as §2

CAL-148 [8] = assay: normalised viability (% of control), CellTiter-Blue; higher = more viable cells (about 100 = DMSO control); details: 10 nM; incubation time: 72 h
Procedure, shortened: as §1

BT-549 [9] = assay: as above; details: 100 nM; incubation time: 72 h
Procedure, shortened: as §1

MDA-MB-453 [10] = assay: as above; details: 10 nM; incubation time: 72 h
Procedure, shortened: as §1

MFM-223 [11] = assay: as above; details: 100 nM; incubation time: 72 h
Procedure, shortened: as §1

CN(N=O)C(=O)N[C@@H](C=O)[C@@H](O)[C@H](O)[C@H](O)CO [Streptozocin]
normalised viability [%]
Details | 3 nM | 10 nM | 30 nM | 100 nM | 1000 nM | 10000 nM
BT-474 | – | 125 | – | – | 98.6 | 135
BT-549 [3] | – | 93 | – | – | 103 | 83.7
CAL-51 | 115 | – | 112 | 107 | – | –
CAL-85-1 | 95.7 | – | 92.1 | 95.4 | – | –
CAL-120 [2] | – | 106 | – | – | 101 | 113
CAL-148 [1] | 98.6 | – | 97.3 | 99.3 | – | –
DU-4475 | 101 | – | 96.5 | 103 | – | –
HCC1143 | – | 87.5 | – | – | 97.4 | 92.5
HCC1599 | – | 104 | – | – | 85.9 | 113
HCC1937 | – | 87.4 | – | – | 63.3 | 75.9
HDQ-P1 | 103 | – | 109 | 111 | – | –
Hs578T | – | 110 | – | – | 103 | 101
MDA-MB-231 | – | 101 | – | – | 138 | 110
MDA-MB-436 | – | 110 | – | – | 88.1 | 90.6
MDA-MB-453 [4] | 116 | – | 89.4 | 93 | – | –
MDA-MB-468 | – | 107 | – | – | 105 | 113
MFM-223 [5] | – | 93.1 | – | – | 93 | 86.8
SK-BR-3 | – | 101 | – | – | 110 | 126

Details | drug sensitivity score | normalised viability [%]
BT-549 [9] | – | 104
CAL-120 [7] | 0 | –
CAL-148 [6] | 0 | –
CAL-148 [8] | – | 99.6
MDA-MB-453 [10] | – | 112
MFM-223 [11] | – | 90.6

O=C1CCC(N2C(=O)c3ccccc3C2=O)C(=O)N1 (stereo not given) [Thalidomide]
normalised viability [%]
Details | 3 nM | 10 nM | 30 nM | 100 nM | 1000 nM | 10000 nM
BT-474 | – | 110 | – | – | 110 | 108
BT-549 [3] | – | 76.7 | – | – | 91.5 | 81.7
CAL-51 | 90.8 | – | 90.7 | 91.3 | – | –
CAL-85-1 | 102 | – | 98.8 | 101 | – | –
CAL-120 [2] | – | 111 | – | – | 106 | 96.8
CAL-148 [1] | 115 | – | 116 | 116 | – | –
DU-4475 | 98.9 | – | 99.7 | 109 | – | –
HCC1143 | – | 109 | – | – | 102 | 107
HCC1599 | – | 101 | – | – | 86 | 102
HCC1937 | – | 85.8 | – | – | 73.4 | 77.9
HDQ-P1 | 107 | – | 101 | 103 | – | –
Hs578T | – | 97.8 | – | – | 108 | 106
MDA-MB-231 | – | 97.2 | – | – | 109 | 124
MDA-MB-436 | – | 106 | – | – | 87 | 96.8
MDA-MB-453 [4] | 99 | – | 99.3 | 89.7 | – | –
MDA-MB-468 | – | 97.9 | – | – | 101 | 105
MFM-223 [5] | – | 103 | – | – | 96.6 | 91.4
SK-BR-3 | – | 97.9 | – | – | 112 | 109

Details | drug sensitivity score | normalised viability [%]
BT-549 [9] | – | 88
CAL-120 [7] | 0 | –
CAL-148 [6] | 1.58 | –
CAL-148 [8] | – | 107
MDA-MB-453 [10] | – | 98.3
MFM-223 [11] | – | 90.7

CN[C@@H]1C[C@H]2O[C@@](C)([C@@H]1OC)n1c3ccccc3c3c4c(c5c6ccccc6n2c5c31)C(=O)N[C@H]4O [UCN-01]
normalised viability [%]
Details | 3 nM | 10 nM | 30 nM | 100 nM | 1000 nM | 10000 nM
BT-474 | – | 108 | – | – | 44.2 | 2.62
BT-549 [3] | – | 91.4 | – | – | 11.8 | 0.77
CAL-51 | 99.7 | – | 87.2 | 62.6 | – | –
CAL-85-1 | 87.4 | – | 73.6 | 60.4 | – | –
CAL-120 [2] | – | 72.8 | – | – | 17.7 | 9.93
CAL-148 [1] | 92.2 | – | 105 | 106 | – | –
DU-4475 | 109 | – | 81.5 | 78.3 | – | –
HCC1143 | – | 77.7 | – | – | 20.6 | 20.4
HCC1599 | – | 81.1 | – | – | 48.3 | 21.2
HCC1937 | – | 71.7 | – | – | 25.6 | 7.84
HDQ-P1 | 82.2 | – | 66.8 | 39.6 | – | –
Hs578T | – | 88.3 | – | – | 7.74 | 0.41
MDA-MB-231 | – | 93.7 | – | – | 17.2 | 0.84
MDA-MB-436 | – | 110 | – | – | 47.8 | 12.8
MDA-MB-453 [4] | 98 | – | 86.8 | 65 | – | –
MDA-MB-468 | – | 126 | – | – | 7.27 | 6.64
MFM-223 [5] | – | 103 | – | – | 42.1 | 13.5
SK-BR-3 | – | 101 | – | – | 16.5 | 3.68

Details | drug sensitivity score | normalised viability [%]
BT-549 [9] | – | 52.3
CAL-120 [7] | 9.11 | –
CAL-148 [6] | 3.4 | –
CAL-148 [8] | – | 98.5
MDA-MB-453 [10] | – | 106
MFM-223 [11] | – | 66.9
